According to patent US20070161644A1, “Erastin analogs and uses thereof” (priority 2005, published 2007):

Columns and labels:
Assay in all cases: Calcein AM viability assay, dilution series
Format in all cases: cell-based, human
Details in all cases: 50% inhibition of calcein AM staining; 16-point two-fold dilution; two days
[1] = test system: BJ-TERT/LT/ST/RAS^V12 cells
Description: Described here is work carried out to identify compounds with increased potency or activity in the presence of hTERT, LT, ST, E6, E7 or RAS^V12. Although the work described herein made use of hTERT, LT, ST, E6, E7 and RAS^V12 as transforming genes, future studies can make use of a wide variety of cancer-associated alleles using this methodology in order to define the signaling networks that involve many oncogenes and tumor suppressors. […] Cell viability was measured using the dye calcein acetoxymethyl ester (calcein AM) (Wang et al., 1993, Hum. Immunol. 37, 264-270), which is a non-fluorescent compound that freely diffuses into cells. […]
Calcein acetoxylmethyl ester (AM) is a cell membrane-permeable, non-fluorescent compound that is cleaved by intracellular esterases to form the anionic, cell-impermeable, fluorescent compound calcein. […] Total fluorescence intensity in each well was recorded on a Packard Fusion platereader, and converted to a percent inhibition of signal by subtracting the instrument background and dividing by the average signal obtained when cells were not treated with any compound. […]
Mean RFU (relative fluorescence units) for untreated cells was calculated by averaging columns 1, 2, and 23 (wells with cells but lacking compounds). The calcein background was calculated by averaging column 24 (wells with calcein, but lacking cells). […]

[2] = test system: TIP5/TERT/LT/ST/RAS^V12 cells
From the text: (§1) Described here is work carried out to identify compounds with increased potency or activity in the presence of hTERT, LT, ST, E6, E7 or RAS^V12. Although the work described herein made use of hTERT, LT, ST, E6, E7 and RAS^V12 as transforming genes, future studies can make use of a wide variety of cancer-associated alleles using this methodology in order to define the signaling networks that involve many oncogenes and tumor suppressors. Engineered cell lines with these genetic elements were used to screen 23,550 compounds, including 20,000 compounds from a combinatorial library, 1,990 compounds from the National Cancer Institute diversity collection, and 1,540 biologically active known compounds that were selected and purchased by Applicant and formatted into a screenable collection. The primary screen tested (in quadruplicate) the effect of treating tumorigenic BJ-TERT/LT/ST/RAS^V12 engineered tumorigenic cells with each compound for 48 hours at a concentration of 4 μg/mL, corresponding to 10 μM for a compound with a molecular weight of 400, which is the approximate median molecular weight of the libraries. Cell viability was measured using the dye calcein acetoxymethyl ester (calcein AM) (Wang et al., 1993, Hum. Immunol. 37, 264-270), which is a non-fluorescent compound that freely diffuses into cells. In live cells, calcein AM is cleaved by intracellular esterases, forming the anionic fluorescent derivative calcein, which cannot diffuse out of live cells. […] The IC50 value (concentration required to inhibit 50% of the calcein AM signal) was calculated for each compound in each cell line (Table 1). […] Following is a more detailed analysis of these nine compounds.
(§2) Calcein acetoxylmethyl ester (AM) is a cell membrane-permeable, non-fluorescent compound that is cleaved by intracellular esterases to form the anionic, cell-impermeable, fluorescent compound calcein. Viable cells are stained by calcein because of the presence of intracellular esterases and because the intact plasma membrane prevents fluorescent calcein from leaking out of cells (Wang et al., 1993, supra). Cells were seeded in 384-well plates using a Zymark Sciclone ALH, treated with each compound in triplicate at 4 μg/mL in the primary screen for two days, washed with phosphate-buffered saline on a Packard Minitrak with a 384-well washer and incubated for four hours with 0.7 μg/mL calcein (Molecular Probes). Total fluorescence intensity in each well was recorded on a Packard Fusion platereader, and converted to a percent inhibition of signal by subtracting the instrument background and dividing by the average signal obtained when cells were not treated with any compound.
(§3) Compounds to be retested were purchased from manufacturers. Stocks were prepared in DMSO at a concentration of 1 mg/ml in 384-well polypropylene plates with a 16-point, two-fold dilution dose curve of each compound in a column, in duplicates. Column 1-2 and 23-24 were left empty for controls. Daughter retest plates were prepared from stock retest plate by diluting 66.6 fold in DMEM in 384-well deep-deep well plates (4.5 μl transfer into 300 μl). Cells were seeded at a density of 6000 per well in 40 μl, and 20 μl was added from a daughter retest plate. The plates were incubated for two days at 37° C. with 5% CO2.
(§4) Mean RFU (relative fluorescence units) for untreated cells was calculated by averaging columns 1, 2, and 23 (wells with cells but lacking compounds). The calcein background was calculated by averaging column 24 (wells with calcein, but lacking cells). Percentage inhibition of each well was calculated as [1−(RFU−calcein control)/(untreated cell−calcein control)*100]. Compounds causing at least 50% inhibition of calcein staining in the primary screen were tested for selectivity towards BJ-TERT/LT/ST/RAS^V12 engineered tumor cells by testing in BJ primary and BJ-TERT/LT/ST/RAS^V12 cells at a range of concentrations. Selective compounds were retested in all engineered cell lines.

[3] = test system: BJ primary cells
From the text: as §1, §2, §3, §4

[4] = test system: TIP5/TERT/LT cells
From the text: as §1, §2, §3, §4

[5] = test system: TIP5/TERT/E6/E7 cells
From the text: as §1, §2, §3, §4

[6] = test system: BJ-TERT/LT/RAS^V12/ST cells
From the text: as §1, §2, §3, §4

[7] = test system: TIP5/TERT/E6/E7/ST/RAS^V12 cells
From the text: as §1, §2, §3, §4

[8] = test system: TIP5/TERT/E6/E7/ST cells
From the text: as §1, §2, §3, §4

[9] = test system: TIP5/TERT cells
From the text: as §1, §2, §3, §4

[10] = test system: BJ-TERT/LT/ST cells
From the text: as §1, §2, §3, §4

In the case of `Cc1c2ccccc2c(CSC(=N)N)c2ccccc12.Cl` [NSC146109], the “IC50 BJ-TERT/LT/ST/Ras^v12” value [1] is reported as 2.5 mg/L, the “IC50 TIP5-TERT/LT/ST/Ras^v12” value [2] is reported as 2.5 mg/L and the “IC50 BJ” value [3] is reported as over 5 mg/L. For the same compound, the “IC50 TIP5-TERT/LT” value [4] was over 5 mg/L, the “IC50 TIP5-TERT/E6E7” value [5] was 2.5 mg/L and the “IC50 BJ-TERT/LT/Ras^v12/ST” value [6] was 2.5 mg/L. The “IC50 TIP5-TERT/E6E7/ST/Ras^v12” value [7] was 2.5 mg/L, the “IC50 TIP5-TERT/E6E7/ST” value [8] was 2.5 mg/L and the “IC50 TIP5-TERT” value [9] was over 5 mg/L. For the same compound, the “IC50 BJ-TERT/LT/ST” value [10] was 2.5 mg/L.
